# Measurements from PubChem BioAssay AID248 (DTP/NCI, 2004).
# Several values for one entry are separate records, joined by “and”; a condition that tells them apart may be missing. Equal entries are not always repeated. Inconclusive results and toxic doses are left out.
# Tested on: L1210 leukemia ip in BDF1 mice, survival T/C
# Assay: NCI In Vivo Anticancer Drug Screen. Data for tumor model L1210 Leukemia (intraperitoneal) in B6D2F1 (BDF1) mice
# Conditions: endpoint: mean survival time, higher = longer survival
# Summary of the method: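 Each compound was tested against a transplantable tumor grown in mice. The endpoint was survival, with treated animals benchmarked against vehicle controls as a simple ratio.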
# [1] = dose: 100.0 mg/kg/injection, schedule: Q04DX003 (ip), vehicle: saline
# [2] = dose: 200.0 mg/kg/injection, schedule: Q04DX003 (ip), vehicle: saline
# [3] = dose: 25.0 mg/kg/injection, schedule: Q01DX009 (ip), vehicle: saline
# [4] = dose: 50.0 mg/kg/injection, schedule: Q01DX009 (ip), vehicle: saline
# [5] = dose: 100.0 mg/kg/injection, schedule: Q01DX009 (ip), vehicle: saline
# [6] = dose: 100.0 mg/kg/injection, schedule: Q04DX003 (ip), vehicle: saline with Tween-80
# [7] = dose: 200.0 mg/kg/injection, schedule: Q04DX003 (ip), vehicle: saline with Tween-80
# [8] = dose: 400.0 mg/kg/injection, schedule: Q04DX003 (ip), vehicle: saline with Tween-80
# [9] = dose: 200.0 mg/kg/injection, schedule: Q01DX009 (ip), vehicle: saline with Tween-80
# [10] = dose: 50.0 mg/kg/injection, schedule: Q01DX009 (ip), vehicle: saline with Tween-80
# [11] = dose: 100.0 mg/kg/injection, schedule: Q01DX009 (ip), vehicle: saline with Tween-80
# [12] = dose: 400.0 mg/kg/injection, schedule: Q01DX009 (ip), vehicle: saline with Tween-80
# [13] = dose: 100.0 mg/kg/injection, schedule: Q01DX009 (ip), vehicle: Klucel (hydroxypropylcellulose) (HPC)
# [14] = dose: 100.0 mg/kg/injection, schedule: Q04DX003 (ip), vehicle: Klucel (hydroxypropylcellulose) (HPC)
# [15] = dose: 200.0 mg/kg/injection, schedule: Q01DX009 (ip), vehicle: Klucel (hydroxypropylcellulose) (HPC)
# [16] = dose: 200.0 mg/kg/injection, schedule: Q04DX003 (ip), vehicle: Klucel (hydroxypropylcellulose) (HPC)
# [17] = dose: 400.0 mg/kg/injection, schedule: Q01DX009 (ip), vehicle: Klucel (hydroxypropylcellulose) (HPC)
# [18] = dose: 400.0 mg/kg/injection, schedule: Q04DX003 (ip), vehicle: Klucel (hydroxypropylcellulose) (HPC)
# [19] = dose: 100.0 mg/kg/injection, schedule: Q01DX001 (ip), vehicle: saline
# [20] = dose: 200.0 mg/kg/injection, schedule: Q01DX001 (ip), vehicle: saline
compound,measurement,setting,value
CC(N)CC(C)(C)N (configuration not stated),T/C,"dose: 50.0 mg/kg/injection, schedule: Q04DX003 (ip), vehicle: saline",90 % of control
same,T/C,[1],91 % of control
same,T/C,[2],90 % of control
O=C(O)c1ccncc1C(=O)c1csc2ccccc12,T/C,[3],108 % of control
same,T/C,[4],102 % of control
same,T/C,"dose: 50.0 mg/kg/injection, schedule: Q04DX003 (ip), vehicle: acetone",99 % of control
same,T/C,[5],94 % of control
same,T/C,"dose: 100.0 mg/kg/injection, schedule: Q04DX003 (ip), vehicle: acetone",99 % of control
CCOC(=O)CCCc1ccccc1,T/C,[6],107 % of control
same,T/C,[7],90 % of control
same,T/C,[8],93 % of control
COc1ccc(-c2ccc(OC)c(OC)c2OC)c(N)c1,T/C,"dose: 65.0 mg/kg/injection, schedule: Q01DX Z (ip), vehicle: carboxymethylcellulose (CMC)",93 % of control and 121 % of control
same,T/C,"dose: 125.0 mg/kg/injection, schedule: Q01DX Z (ip), vehicle: carboxymethylcellulose (CMC)",94 % of control and 100 % of control
same,T/C,"dose: 250.0 mg/kg/injection, schedule: Q01DX Z (ip), vehicle: carboxymethylcellulose (CMC)",93 % of control and 86 % of control
same,T/C,"dose: 500.0 mg/kg/injection, schedule: Q01DX Z (ip), vehicle: carboxymethylcellulose (CMC)",112 % of control
O=C(NNCN1C(=O)c2ccccc2C1=O)c1ccccc1,T/C,[9],90 % of control
Nc1nc(=O)c2[nH]cnc2n1O,T/C,"dose: 12.5 mg/kg/injection, schedule: Q01DX009 (ip), vehicle: saline with Tween-80",96 % of control
same,T/C,"dose: 16.5 mg/kg/injection, schedule: Q01DX009 (ip), vehicle: saline",112 % of control
same,T/C,"dose: 25.0 mg/kg/injection, schedule: Q01DX009 (ip), vehicle: saline with Tween-80",215 % of control
same,T/C,[3],100 % of control
same,T/C,[10],88 % of control
same,T/C,"dose: 55.0 mg/kg/injection, schedule: Q01DX009 (ip), vehicle: saline",110 % of control
O=[N+]([O-])c1ccc2c(ccn2C2OCC(O)C(O)C2O)c1 (configuration not stated),T/C,"dose: 25.0 mg/kg/injection, schedule: Q01DX005 (ip), vehicle: saline",94 % of control and 96 % of control
same,T/C,"dose: 50.0 mg/kg/injection, schedule: Q01DX005 (ip), vehicle: saline",96 % of control and 92 % of control
same,T/C,[10],98 % of control
same,T/C,"dose: 100.0 mg/kg/injection, schedule: Q01DX005 (ip), vehicle: saline",93 % of control and 91 % of control
same,T/C,[11],98 % of control
same,T/C,[9],102 % of control
same,T/C,[12],111 % of control
CC(C(=O)c1ccc(Br)cc1)C(O)(C(F)(F)F)C(F)(F)F (configuration not stated),T/C,"dose: 100.0 mg/kg/injection, schedule: Q01DX007 (ip), vehicle: saline with Tween-80",102 % of control
same,T/C,"dose: 200.0 mg/kg/injection, schedule: Q01DX007 (ip), vehicle: saline with Tween-80",109 % of control
same,T/C,"dose: 400.0 mg/kg/injection, schedule: Q01DX007 (ip), vehicle: saline with Tween-80",101 % of control
O=c1cc[nH]c2cc(Cl)ccc12,T/C,[4],102 % of control
same,T/C,[5],97 % of control
N/C(=C\C(=O)Cl)C(=O)c1ccccc1,T/C,"dose: 100.0 mg/kg/injection, schedule: Q01DX001 (ip), vehicle: saline with Tween-80",106 % of control
same,T/C,"dose: 200.0 mg/kg/injection, schedule: Q01DX001 (ip), vehicle: saline with Tween-80",90 % of control
same,T/C,"dose: 400.0 mg/kg/injection, schedule: Q01DX001 (ip), vehicle: saline with Tween-80",105 % of control
O=C(Oc1ccccc1[N+](=O)[O-])c1ccccc1,T/C,"dose: 100.0 mg/kg/injection, schedule: Q04DX003 (ip), vehicle: other",98 % of control
same,T/C,"dose: 200.0 mg/kg/injection, schedule: Q04DX003 (ip), vehicle: other",118 % of control
same,T/C,"dose: 400.0 mg/kg/injection, schedule: Q04DX003 (ip), vehicle: other",93 % of control
NCCSCC(N)C(=O)O (configuration not stated),T/C,"dose: 100.0 mg/kg/injection, schedule: Q04DX002 (ip), vehicle: saline",92 % of control
same,T/C,"dose: 200.0 mg/kg/injection, schedule: Q04DX002 (ip), vehicle: saline",92 % of control
same,T/C,"dose: 400.0 mg/kg/injection, schedule: Q04DX002 (ip), vehicle: saline",109 % of control
Cc1cccc(C)c1NC(=O)Nc1cccc(Cl)c1,T/C,[13],93 % of control
same,T/C,[14],94 % of control
same,T/C,[15],93 % of control
same,T/C,[16],89 % of control
same,T/C,[17],92 % of control
same,T/C,[18],89 % of control
NNC(=O)c1ccc(-c2ccc[nH]2)[nH]1,T/C,"dose: 75.0 mg/kg/injection, schedule: Q01DX001 (ip), vehicle: saline",108 % of control
same,T/C,"dose: 150.0 mg/kg/injection, schedule: Q01DX001 (ip), vehicle: saline",92 % of control
NNC(=O)Cc1ccccc1,T/C,[1],94 % of control
same,T/C,[2],89 % of control
CCCCN(C=S)CCCC,T/C,"dose: 25.0 mg/kg/injection, schedule: Q04DX002 (ip), vehicle: saline with Tween-80",98 % of control
same,T/C,"dose: 50.0 mg/kg/injection, schedule: Q04DX002 (ip), vehicle: saline with Tween-80",95 % of control
same,T/C,"dose: 100.0 mg/kg/injection, schedule: Q04DX002 (ip), vehicle: saline with Tween-80",102 % of control
same,T/C,[6],92 % of control
Cc1cccc(NC(=O)c2ccccc2Cl)c1C,T/C,[11],103 % of control
same,T/C,[6],95 % of control
same,T/C,[9],95 % of control
same,T/C,[7],93 % of control
same,T/C,[12],104 % of control
same,T/C,[8],91 % of control
OC(COc1ccccc1)COc1ccccc1,T/C,[14],105 % of control
same,T/C,[6],96 % of control
same,T/C,[16],105 % of control
same,T/C,[7],95 % of control
same,T/C,[18],106 % of control
same,T/C,[8],93 % of control
CCCCCCCC(=O)[O][Pb]([CH2]C)([CH2]C)[CH2]C,T/C,"dose: 12.5 mg/kg/injection, schedule: Q04DX002 (ip), vehicle: DMSO",114 % of control
CSc1ccc(N=Cc2ccccc2O)cc1,T/C,"dose: 100.0 mg/kg/injection, schedule: Q01DX001 (ip), vehicle: carboxymethylcellulose (CMC)",93 % of control
same,T/C,"dose: 200.0 mg/kg/injection, schedule: Q01DX001 (ip), vehicle: carboxymethylcellulose (CMC)",93 % of control
same,T/C,"dose: 400.0 mg/kg/injection, schedule: Q01DX001 (ip), vehicle: carboxymethylcellulose (CMC)",98 % of control
c1ccc(NNC(c2ccccc2)(c2ccccc2)c2ccccc2)cc1,T/C,[13],101 % of control
same,T/C,[14],101 % of control
same,T/C,[15],98 % of control
same,T/C,[16],95 % of control
same,T/C,[17],92 % of control
same,T/C,[18],95 % of control
Nc1nc(Cl)[nH]c1-c1ncn[nH]1,T/C,[19],92 % of control
same,T/C,[20],106 % of control
CCC(C(=O)O)C(C)(C)O (configuration not stated),T/C,[19],93 % of control
same,T/C,[20],93 % of control
same,T/C,"dose: 400.0 mg/kg/injection, schedule: Q01DX001 (ip), vehicle: saline",103 % of control
CCCCC(C(=O)O)(c1ccccc1)c1ccccc1,T/C,"dose: 75.0 mg/kg/injection, schedule: Q04DX002 (ip), vehicle: gum acacia",96 % of control
same,T/C,"dose: 150.0 mg/kg/injection, schedule: Q04DX002 (ip), vehicle: gum acacia",107 % of control
OC1CC2C=C(c3ccccc3)C1C2 (configuration not stated),T/C,[6],96 % of control
same,T/C,[7],93 % of control
same,T/C,[8],88 % of control
CNC(=O)NC1C(O)C(OC)OC2COC(c3ccccc3)OC21 (configuration not stated),T/C,[6],92 % of control
same,T/C,[7],92 % of control
CCOC(=O)c1nn(C)c(=S)[nH]c1=O,T/C,"dose: 100.0 mg/kg/injection, schedule: Q01DX Z (ip), vehicle: methylcellulose (MC)",92 % of control
same,T/C,"dose: 200.0 mg/kg/injection, schedule: Q01DX Z (ip), vehicle: methylcellulose (MC)",90 % of control
Cc1cc(N)c(C)c(C)c1O,T/C,"dose: 12.5 mg/kg/injection, schedule: Q04DX003 (ip), vehicle: saline with Tween-80",94 % of control
same,T/C,"dose: 25.0 mg/kg/injection, schedule: Q04DX003 (ip), vehicle: saline with Tween-80",94 % of control
same,T/C,"dose: 50.0 mg/kg/injection, schedule: Q04DX003 (ip), vehicle: saline with Tween-80",94 % of control
same,T/C,[6],101 % of control
CC(=O)CC(=O)CCc1ccccc1.CC(=O)CC(=O)CCc1ccccc1.[Cu],T/C,"dose: 75.0 mg/kg/injection, schedule: Q01DX001 (ip), vehicle: carboxymethylcellulose (CMC)",91 % of control
ClCCCNCc1ccccc1,T/C,[3],111 % of control
same,T/C,[4],97 % of control
same,T/C,[5],97 % of control
same,T/C,[1],94 % of control
